Consider 22 molecules from US20240382483A1, “HETEROCYCLIC EGFR INHIBITORS FOR USE IN THE TREATMENT OF CANCER” (Blueprint Medicines Corporation, priority 2021, published 2024).

Test [1] has as its target T1, intracellular phosphorylation of EGFR in NCI-H1975 cell line that harbors the EGFR L858R T790M mutations (Homo sapiens, UniProt P00533, L858R/T790M).
T1 construct: NCI-H1975 cell line that harbors the EGFR L858R T790M mutations (ATCC, CRL-5908); host or cells: NCI-H1975
Briefly: NCI-H1975 pEGFR AlphaLISA assay. It counts as cell-based. The note with it: NCI-H1975 cells (EGFR L858R T790M), p-EGFR (Tyr1068), 4-5 hours incubation; read-out: Ext pEGFR H1975 GMean IC50 (nM) Protocol: @Pharmaron AlphaLISA (Num). On the procedure:
On the next day, the test compounds and DMSO control were added into H1975 cell plate followed by incubation at 37C/5% CO2 for 4-5 hours. […] Then 5 μL of a donor bead mix was added to each well followed by overnight incubation at room temperature in dark. On the next day, the plate was read at a compatible plate reader to obtain pEGFR signal. Percent of pEGFR inhibition was plotted against log concentration of compounds to generate IC50 values.

Test [2] addresses T2, EGFR (L858R T790M C797S) (Homo sapiens, UniProt P00533, C797S/L858R/T790M).
T2 construct: purchased SignalChem E10-122VG
Briefly: Biochemical EGFR inhibition assay (Caliper mobility shift), EGFR LRTMCS. As to conditions: LRTMCS (PH) IC50 (nM) @ 1 mM ATP (Num), EGFR LRTMCS mutant. In a few lines:
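Kinase reactions proceed at 25° C. to 10%–20% conversion of total peptide, are terminated with 35 mM EDTA, and the phosphopeptide is resolved from substrate by electrophoretic mobility shift. Apparent IC50 values come from plotting percent activity against log compound concentration.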

Counter-ions that a name gives are not always drawn.

T1 sequence (P00533 25-1210 T790M/L858R): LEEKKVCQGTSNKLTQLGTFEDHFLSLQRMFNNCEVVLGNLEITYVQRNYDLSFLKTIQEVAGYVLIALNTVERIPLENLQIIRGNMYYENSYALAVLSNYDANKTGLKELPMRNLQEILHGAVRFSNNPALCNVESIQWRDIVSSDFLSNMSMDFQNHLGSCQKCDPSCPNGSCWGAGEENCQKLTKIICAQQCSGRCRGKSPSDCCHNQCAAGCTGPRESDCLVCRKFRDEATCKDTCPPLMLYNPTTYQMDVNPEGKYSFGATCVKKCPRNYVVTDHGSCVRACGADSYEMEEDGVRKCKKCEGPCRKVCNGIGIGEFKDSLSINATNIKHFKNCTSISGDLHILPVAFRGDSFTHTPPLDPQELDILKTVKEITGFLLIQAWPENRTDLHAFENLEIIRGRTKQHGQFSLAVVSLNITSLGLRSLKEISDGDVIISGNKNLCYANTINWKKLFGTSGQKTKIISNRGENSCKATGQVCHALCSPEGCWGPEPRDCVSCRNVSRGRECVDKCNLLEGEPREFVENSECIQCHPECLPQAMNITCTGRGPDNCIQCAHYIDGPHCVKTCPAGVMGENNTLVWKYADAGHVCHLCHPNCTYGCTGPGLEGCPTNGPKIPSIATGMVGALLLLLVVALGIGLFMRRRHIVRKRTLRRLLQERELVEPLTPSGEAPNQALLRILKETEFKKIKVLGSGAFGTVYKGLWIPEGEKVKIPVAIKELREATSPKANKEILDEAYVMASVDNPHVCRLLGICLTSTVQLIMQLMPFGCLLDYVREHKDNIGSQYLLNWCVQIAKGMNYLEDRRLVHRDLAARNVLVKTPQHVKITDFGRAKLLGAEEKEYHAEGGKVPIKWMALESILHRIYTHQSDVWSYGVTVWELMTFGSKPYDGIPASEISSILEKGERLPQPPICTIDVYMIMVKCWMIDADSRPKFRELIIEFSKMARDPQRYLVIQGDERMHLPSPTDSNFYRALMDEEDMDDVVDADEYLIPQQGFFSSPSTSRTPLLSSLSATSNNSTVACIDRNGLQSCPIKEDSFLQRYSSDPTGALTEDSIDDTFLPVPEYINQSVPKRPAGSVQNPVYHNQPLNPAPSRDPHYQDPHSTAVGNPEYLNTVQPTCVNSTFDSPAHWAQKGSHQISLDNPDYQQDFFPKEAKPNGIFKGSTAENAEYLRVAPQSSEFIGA
T2 sequence (P00533 25-1210 T790M/C797S/L858R): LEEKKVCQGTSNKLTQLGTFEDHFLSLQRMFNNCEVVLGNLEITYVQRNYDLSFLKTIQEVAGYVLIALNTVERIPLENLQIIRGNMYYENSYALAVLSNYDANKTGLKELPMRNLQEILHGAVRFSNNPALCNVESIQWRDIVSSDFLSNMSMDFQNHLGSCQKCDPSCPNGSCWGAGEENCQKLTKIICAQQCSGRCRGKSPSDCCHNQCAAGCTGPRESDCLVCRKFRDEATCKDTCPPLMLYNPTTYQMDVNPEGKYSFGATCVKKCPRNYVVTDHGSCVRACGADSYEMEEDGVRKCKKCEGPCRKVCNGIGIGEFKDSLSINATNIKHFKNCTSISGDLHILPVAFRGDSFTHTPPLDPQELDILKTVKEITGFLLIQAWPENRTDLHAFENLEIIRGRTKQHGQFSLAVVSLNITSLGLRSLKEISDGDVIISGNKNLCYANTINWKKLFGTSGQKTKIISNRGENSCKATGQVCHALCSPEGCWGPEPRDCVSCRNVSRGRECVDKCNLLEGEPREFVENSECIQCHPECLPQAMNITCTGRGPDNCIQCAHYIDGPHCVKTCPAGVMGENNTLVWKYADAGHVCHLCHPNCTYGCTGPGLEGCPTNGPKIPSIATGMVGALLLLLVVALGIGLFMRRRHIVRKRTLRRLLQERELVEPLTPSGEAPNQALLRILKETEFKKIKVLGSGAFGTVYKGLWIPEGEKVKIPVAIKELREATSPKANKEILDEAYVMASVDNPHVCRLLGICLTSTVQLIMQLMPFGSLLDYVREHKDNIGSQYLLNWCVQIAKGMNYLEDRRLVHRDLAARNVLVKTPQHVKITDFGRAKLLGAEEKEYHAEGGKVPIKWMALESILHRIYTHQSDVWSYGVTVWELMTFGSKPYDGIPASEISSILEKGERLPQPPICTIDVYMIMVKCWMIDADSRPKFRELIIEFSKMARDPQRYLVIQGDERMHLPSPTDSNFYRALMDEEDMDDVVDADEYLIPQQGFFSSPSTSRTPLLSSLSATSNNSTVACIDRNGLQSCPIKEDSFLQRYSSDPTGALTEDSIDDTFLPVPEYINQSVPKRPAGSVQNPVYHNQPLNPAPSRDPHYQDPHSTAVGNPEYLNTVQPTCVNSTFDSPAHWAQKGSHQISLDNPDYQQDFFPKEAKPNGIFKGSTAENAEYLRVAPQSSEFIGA

For the molecule `Cc1nnc(-c2cnc(C(C)C)c3cc(Nc4ccnc(N5CC[C@@H](O)[C@@](C)(F)C5)n4)ncc23)o1` [Example 7, (3S,4R)-3-fluoro-1-(4-((5-isopropyl-8-(5-methyl-1,3,4-oxadiazol-2-yl)-2,6-naphthyridin-3-yl)amino)pyrimidin-2-yl)-3-methylpiperidin-4-ol], the results for the IC50 in test [1] and in test [2] were more than 50 nM and 15 to 20 nM, respectively.
For `Cc1nc(-c2cnc(C(C)C)c3cc(Nc4ccnc(N5CC[C@@H](O)[C@@](C)(F)C5)n4)ncc23)no1` [Example 8, (3S,4R)-3-fluoro-1-(4-((5-isopropyl-8-(5-methyl-1,2,4-oxadiazol-3-yl)-2,6-naphthyridin-3-yl)amino)pyrimidin-2-yl)-3-methylpiperidin-4-ol], the figures for the IC50 in test [1] and in test [2] were more than 50 nM and 20 to 30 nM, respectively.
Take `CC(C)c1cnc(-c2cnn(C)c2)c2cnc(Nc3ccnc(N4CC[C@@H](O)[C@@](C)(F)C4)n3)cc12` [Example 9, (3S,4R)-3-fluoro-1-(4-((5-isopropyl-8-(1-methyl-1H-pyrazol-4-yl)-2,7-naphthyridin-3-yl)amino)pyrimidin-2-yl)-3-methylpiperidin-4-ol]: the IC50 (commonly the concentration that gives 50% inhibition) in test [1] is 30 to 50 nM; in test [2], less than 15 nM.
Consider `CC(C)c1cnc(-c2cn(C)nn2)c2cnc(Nc3ccnc(N4CC[C@@H](O)[C@@](C)(F)C4)n3)cc12` [Example 10, (3S,4R)-3-fluoro-1-(4-((5-isopropyl-8-(1-methyl-1H-1,2,3-triazol-4-yl)-2,7-naphthyridin-3-yl)amino)pyrimidin-2-yl)-3-methylpiperidin-4-ol], for which the IC50 in test [1] is 10 to 20 nM; in test [2], less than 15 nM.
Take `CC(C)c1ncc(-c2ccn(C)n2)c2cnc(Nc3ccnc(N4CC[C@@H](O)[C@@](C)(F)C4)n3)cc12` [Example 11, (3S,4R)-3-fluoro-1-(4-((5-isopropyl-8-(1-methyl-1H-pyrazol-3-yl)-2,6-naphthyridin-3-yl)amino)pyrimidin-2-yl)-3-methylpiperidin-4-ol]: the IC50 fell in the range of 30 to 50 nM in test [1] and 20 to 30 nM in test [2].
The corresponding values for `CC(C)c1ncc(-c2cn(C)nn2)c2cnc(Nc3ccnc(N4CC[C@@H](O)[C@@](C)(F)C4)n3)cc12` [Example 12, (3S,4R)-3-fluoro-1-(4-((5-isopropyl-8-(1-methyl-1H-1,2,3-triazol-4-yl)-2,6-naphthyridin-3-yl)amino)pyrimidin-2-yl)-3-methylpiperidin-4-ol] are 10 to 20 nM and less than 15 nM.
As to `CC(C)c1cnc(-c2cnn(C)c2CN(C)C)c2cnc(Nc3ccnc(N4CC[C@@H](O)[C@@](C)(F)C4)n3)cc12` [Example 13, (3S,4R)-1-(4-((8-(5-((dimethylamino)methyl)-1-methyl-1H-pyrazol-4-yl)-5-isopropyl-2,7-naphthyridin-3-yl)amino)pyrimidin-2-yl)-3-fluoro-3-methylpiperidin-4-ol trifluoroacetate], the IC50 in test [1] was more than 50 nM; in test [2], 30 to 100 nM.
In the case of `CC(C)c1ncc(-c2cnn(C)c2)c2cnc(Nc3ccnc(N4CC[C@@H](O)[C@@](C)(F)C4)n3)cc12` [Example 14, (3S,4R)-3-fluoro-1-(4-((5-isopropyl-8-(1-methyl-1H-pyrazol-4-yl)-2,6-naphthyridin-3-yl)amino)pyrimidin-2-yl)-3-methylpiperidin-4-ol], the IC50 in test [1] is more than 50 nM; in test [2], less than 15 nM.
The corresponding values for `CC(C)c1cnc(-c2ncn(C)n2)c2cnc(Nc3ccnc(N4CC[C@@H](O)[C@@](C)(F)C4)n3)cc12` [Example 15, (3S,4R)-3-fluoro-1-(4-((5-isopropyl-8-(1-methyl-1H-1,2,4-triazol-3-yl)-2,7-naphthyridin-3-yl)amino)pyrimidin-2-yl)-3-methylpiperidin-4-ol] are more than 50 nM and less than 15 nM.
As for `CC(C)c1cnc(-c2cnn(C(F)F)c2)c2cnc(Nc3ccnc(N4CC[C@@H](O)[C@@](C)(F)C4)n3)cc12` [Example 16, (3S,4R)-1-(4-((8-(1-(difluoromethyl)-1H-pyrazol-4-yl)-5-isopropyl-2,7-naphthyridin-3-yl)amino)pyrimidin-2-yl)-3-fluoro-3-methylpiperidin-4-ol], the results for the IC50 in test [1] and in test [2] were more than 50 nM and 15 to 20 nM, respectively.
Regarding `Cc1c(-c2ncc(C(C)C)c3cc(Nc4ccnc(N5CC[C@@H](O)[C@@](C)(F)C5)n4)ncc23)nnn1C` [Example 17, (3S,4R)-1-(4-((8-(1,5-dimethyl-1H-1,2,3-triazol-4-yl)-5-isopropyl-2,7-naphthyridin-3-yl)amino)pyrimidin-2-yl)-3-fluoro-3-methylpiperidin-4-ol], the IC50 was 10 to 20 nM in test [1] and less than 15 nM in test [2].
For `CC(C)c1cnc(-c2cnn(S(C)(=O)=O)c2)c2cnc(Nc3ccnc(N4CC[C@@H](O)[C@@](C)(F)C4)n3)cc12` [Example 18, (3S,4R)-3-fluoro-1-(4-((5-isopropyl-8-(1-(methylsulfonyl)-1H-pyrazol-4-yl)-2,7-naphthyridin-3-yl)amino)pyrimidin-2-yl)-3-methylpiperidin-4-ol], the IC50 was 30 to 50 nM in test [1] and 15 to 20 nM in test [2].
In the case of `CC(C)c1cnc(-c2cn(C3COC3)cn2)c2cnc(Nc3ccnc(N4CC[C@@H](O)[C@@](C)(F)C4)n3)cc12` [Example 20, (3S,4R)-3-fluoro-1-(4-((5-isopropyl-8-(1-(oxetan-3-yl)-1H-imidazol-4-yl)-2,7-naphthyridin-3-yl)amino)pyrimidin-2-yl)-3-methylpiperidin-4-ol], the IC50 in test [1] is 30 to 50 nM; in test [2] it was less than 15 nM.
On to `CC(C)c1cnc(-c2ccn(C3COC3)n2)c2cnc(Nc3ccnc(N4CC[C@@H](O)[C@@](C)(F)C4)n3)cc12` [Example 21, (3S,4R)-3-fluoro-1-(4-((5-isopropyl-8-(1-(oxetan-3-yl)-1H-pyrazol-3-yl)-2,7-naphthyridin-3-yl)amino)pyrimidin-2-yl)-3-methylpiperidin-4-ol], for which the IC50 in test [1] was more than 50 nM; in test [2], less than 15 nM.
On to `CC(C)c1cnc(-c2cnn(C3CN(C)C3)c2)c2cnc(Nc3ccnc(N4CC[C@@H](O)[C@@](C)(F)C4)n3)cc12` [Example 22, (3S,4R)-3-fluoro-1-(4-((5-isopropyl-8-(1-(1-methylazetidin-3-yl)-1H-pyrazol-4-yl)-2,7-naphthyridin-3-yl)amino)pyrimidin-2-yl)-3-methylpiperidin-4-ol], for which the IC50 in test [1] was more than 50 nM; in test [2], 15 to 20 nM.
Take `CC(C)c1cnc(-c2cn(C)nn2)c2cnc(Nc3ccnc(N4CCC5(CCO5)CC4)n3)cc12` [Example 23, N-(2-(1-oxa-7-azaspiro[3.5]nonan-7-yl)pyrimidin-4-yl)-5-isopropyl-8-(1-methyl-1H-1,2,3-triazol-4-yl)-2,7-naphthyridin-3-amine]: the results for the IC50 in test [1] and in test [2] were more than 50 nM and less than 15 nM, respectively.
For `Cc1nc(-c2ncc(C(C)C)c3cc(Nc4ccnc(N5CC[C@@H](O)[C@@](C)(F)C5)n4)ncc23)n[nH]1` [Example 24, (3S,4R)-3-fluoro-1-(4-((5-isopropyl-8-(5-methyl-1H-1,2,4-triazol-3-yl)-2,7-naphthyridin-3-yl)amino)pyrimidin-2-yl)-3-methylpiperidin-4-ol], the IC50 in test [1] was 30 to 50 nM; in test [2] it was less than 15 nM.
For `CC(C)c1cnc(-c2nc[nH]n2)c2cnc(Nc3ccnc(N4CC[C@@H](O)[C@@](C)(F)C4)n3)cc12` [Example 25, (3S,4R)-3-fluoro-1-(4-((5-isopropyl-8-(1H-1,2,4-triazol-3-yl)-2,7-naphthyridin-3-yl)amino)pyrimidin-2-yl)-3-methylpiperidin-4-ol], the IC50 in test [1] is 30 to 50 nM; in test [2], 15 to 20 nM.
In the case of `Cc1nc(-c2ccc(C(C)C)c3cc(Nc4ccnc(N5CC[C@@H](O)[C@@](C)(F)C5)n4)ncc23)n[nH]1` [Example 26, (3S,4R)-3-fluoro-1-(4-((5-isopropyl-8-(5-methyl-1H-1,2,4-triazol-3-yl)isoquinolin-3-yl)amino)pyrimidin-2-yl)-3-methylpiperidin-4-ol], the values for the IC50 in test [1] and in test [2] were 30 to 50 nM and less than 15 nM, respectively.
`CC(C)c1cnc(-c2nnc(C(C)(C)O)o2)c2cnc(Nc3ccnc(N4CC[C@@H](O)[C@@](C)(F)C4)n3)cc12` [Example 27, (3S,4R)-3-fluoro-1-(4-((8-(5-(2-hydroxypropan-2-yl)-1,3,4-oxadiazol-2-yl)-5-isopropyl-2,7-naphthyridin-3-yl)amino)pyrimidin-2-yl)-3-methylpiperidin-4-ol]: the concentration for half-maximal inhibition (IC50) in test [1] is more than 50 nM; in test [2], less than 15 nM.
For `COC[C@@H]1CCN1c1ncc(C(C)C)c2cc(Nc3ccnc(N4CC[C@@H](O)[C@@](C)(F)C4)n3)ncc12` [Example 29, (3S,4R)-3-fluoro-1-(4-((5-isopropyl-8-((S)-2-(methoxymethyl)azetidin-1-yl)-2,7-naphthyridin-3-yl)amino)pyrimidin-2-yl)-3-methylpiperidin-4-ol], the values for the IC50 in test [1] and in test [2] were less than 10 nM and less than 15 nM, respectively.
The corresponding values for `CC(C)c1ccc(N2CC3(CCS3(=O)=O)C2)c2cnc(Nc3ccnc(N4CC[C@@H](O)[C@@](C)(F)C4)n3)cc12` [Example 35, 6-(3-((2-((3S,4R)-3-fluoro-4-hydroxy-3-methylpiperidin-1-yl)pyrimidin-4-yl)amino)-5-isopropylisoquinolin-8-yl)-1-thia-6-azaspiro[3.3]heptane 1,1-dioxide] are less than 10 nM and less than 15 nM.
